Entries after “also recorded” stand apart in the source; their conditions may differ.
Tests used:
ADR-injected Balb/c mice = assay: Toxicity by serology in ADR-injected mice (WBC, hemoglobin, hematocrit, transaminases); type: in vivo, mouse; conditions: for ALT / HCT / HEMOGLOBIN / WBC: 35-day treatment, ADR-injected; for liver toxicity and blood dyscrasias (serology): all treated animals
From the text: We next investigated compounds C, A and G toxicity by serology. More specifically, we determined hematocrit, hemoglobin white cell blood count and liver transaminases ALT and AST of all treated animals to determine if liver toxicity and blood dyscrasias were associated with the compounds.

ABCA1 [1] = assay: Cell fractionation, ABCA1 localization by western blot; type: cell-based, human; conditions: 18 h
Experimental: 14 day-differentiated podocytes were treated with compounds Cpd C (1 μM), Cpd A (5 μM) and Cpd G (10 μM) for 18 h and then washed and scraped with ice cold PBS. Cells were centrifuged at 1,000×g for 5 min, supernatant was carefully aspirated and the pellet resuspended in hypotonic buffer (15 mM KCl, 1.5 mM MgCl2, 10 mM HEPES and 1 mM DTT) supplemented with Roche's protease inhibitor cocktail. Further cell rupture was ensured by frothing in a glass douncer and two freeze and thaw cycles. Sucrose was added, 227 mM final concentration, and the cells were centrifuged at 1,000×g for 30 min at 4° C. The supernatant was then transferred to a new tube and centrifuged at 10,000×g for 15 min at 4° C. The pellet, containing the microsomal fraction was collected and the supernatant was transferred to a new tube and centrifuged at 100,000×g for 1 hr at 4° C. The pelleted plasma membrane fraction was collected and the supernatant, containing non membranous cytosolic fraction, was concentrated in Vivaspin 500 filter columns. The presence of ABCA1, and proteins known to be present at the plasma membrane (Na^+/K^+ sodium pump) and cytosol (MEK), in each fraction was verified by western blot.
(§1) Lysates, or cell fractions were incubated with buffer sample at 55° C. for 10 min under reducing conditions. A total of […] of protein in lysates, and one third of the volume collected in cell fraction preps, were separated by SDSPAGE in 4-20% gels (Biorad) and proteins were then transferred to PVDF membranes. Membranes were blocked with 5% milk and blotted with protein-specific antibodies for 18 h at 4° C. The following antibodies were used: mouse anti-ABCA1 (Abcam; 1:1,000), rabbit anti-GAPDH antibody (Millipore; 1:10,000), rabbit anti-MEK and anti-Na^+/K^+ ATPase (Cell Signaling; 1:1,000). After washing with PBS-T, membranes were incubated with anti-mouse and anti-rabbit specific antibodies conjugated to HRP (Promega) 1:10,000 in 5% milk. Membranes were washed and signal was developed using Western bright ECL substrate (Advansta).

ABCA1 [2] = assay: ABCA1 expression by western blot in differentiated podocytes; type: cell-based, human; conditions: 18 h
Experimental: Podocytes differentiated for 14 days were starved in RPMI-0.2% FBS for 18 h and then treated with freshly prepared dilutions of compounds in full media for 18 h at 37° C. and 5% CO2. Compound concentrations of 1 μM, 5 μM and 10 μM were evaluated. Cells were then washed with PBS and lysed with 1× cell lysis buffer (Cell Signaling) supplemented with protease and phosphatase inhibitor cocktails (Roche). Total protein content was determined by BCA method (Pierce, Thermoscientific). ABCA1 expression was analyzed by western blot.
as §1

[3] = system: ADR-induced nephropathy in Balb/c mice; assay: Adriamycin-induced kidney damage, dose finding experiment, 35 days; type: in vivo, mouse; conditions: for TOTAL CHOL (blood) / TRIGLYCERIDES (blood): 35 days after ADR injection; for Albuminuria / proteinuria / Body weight loss: 5 weeks after ADR
Experimental: First, we performed a preliminary experiment to explore the best dose of compounds to be used and to determine if other experimental variables needed to be adjusted. In this experiment, 30 mice received a single dose of Adriamycin (Sigma-Aldrich, 12 mg/Kg, via tail vein injection) and then were randomly separated into 6 groups of 5 mice each. Another 5 mice were injected with 0.9% NaCl by the same route and were used as a no-kidney injury baseline group. Starting 24 h after ADR injection, vehicle, or different doses of compounds, were given once daily by oral gavage for 35 days. The doses of compounds tested were the following: LXR agonist (Cpd C, 10 mg/Kg); ABCA1 inducers Cpd A and Cpd G (30 mg/Kg and 100 mg/Kg). Body weight measurements and spot urine collection was done once a week. Animals were sacrificed 35 days after ADR injection (FIG. 1).
Spot urine samples were collected for all mice at baseline and time of sacrifice. Urinary albumin and creatinine were determined using an albumin ELISA kit (Bethyl laboratories) and a colorimetric assay for creatinine determination (Stanbio). Albuminuria was calculated and expressed as μg of albumin divided by mg of creatinine. For diabetic mouse model, weight and glycaemia were measured on a bi-weekly basis.

[4] = 100 mg/Kg once daily oral gavage
[5] = 30 mg/Kg once daily oral gavage

**Q.** Which results are given for O=C(N[C@@H]1CCCC[C@H]1O)c1cnc(OCC(F)(F)F)c(-c2ccc(Cl)c(Cl)c2)c1 [Cpd G, 5-(3,4-dichloro-phenyl)-N-((1R,2R)-2-hydroxy-cyclohexyl)-6-(2,2,2-trifluoro-ethoxy)-nicotinamide]?
**A.** ALT (ADR-injected Balb/c mice; 30 mg/Kg): 323.4 ± 87.1 U/L; HCT (ADR-injected Balb/c mice; 30 mg/Kg): 49.5 ± 4.4%; HEMOGLOBIN (ADR-injected Balb/c mice; 30 mg/Kg): 12.9 ± 1.0 g/dL; WBC (ADR-injected Balb/c mice; 30 mg/Kg): 6.3 ± 1.2 ×10^∧3 cells/ul; ALT (ADR-injected Balb/c mice; 100 mg/Kg): 212.4 ± 91.1 U/L; HCT (ADR-injected Balb/c mice; 100 mg/Kg): 49.6 ± 2.3%; HEMOGLOBIN (ADR-injected Balb/c mice; 100 mg/Kg): 13.1 ± 0.6 g/dL; WBC (ADR-injected Balb/c mice; 100 mg/Kg): 4.7 ± 1.6 ×10^∧3 cells/ul; liver toxicity and blood dyscrasias (serology) (ADR-injected Balb/c mice): No apparent signs of such toxicities; ALT (ADR-injected Balb/c mice; first ALT line (r15), 30 mg/Kg): 181.6 ± 69.0 U/L; ALT (ADR-injected Balb/c mice; first ALT line (r15), 100 mg/Kg): 191.4 ± 79.9 U/L; ABCA1 in the microsomal compartment (ABCA1 [1]; 10 μM): Less ABCA1; ABCA1 localization at the plasma membrane (ABCA1 [1]; 10 μM): increase the expression of ABCA1 at the plasma membrane; also recorded: promoted ABCA1 localization at the plasma membrane; ABCA1 expression (western blot, whole cell lysates) (ABCA1 [2]; 10 uM): modest induction; also recorded: modest increase; also recorded: increased ABCA1 expression; TOTAL CHOL (blood) ([3]; 30 mg/Kg): 136.3 ± 38.9 mg/dL; TRIGLYCERIDES (blood) ([3]; 30 mg/Kg): 51 ± 16.8 mg/dL; Albuminuria / proteinuria [3, 4]: attenuated; also recorded: reduced; Body weight loss [3, 4]: partially attenuated; also recorded: prevented; TOTAL CHOL (blood) ([3]; 100 mg/Kg): 109.7 ± 11.0 mg/dL; TRIGLYCERIDES (blood) ([3]; 100 mg/Kg): 62 ± 16.5 mg/dL

**Q.** For O=C(N[C@@H]1CCCC[C@H]1O)c1ccc(OCC(F)(F)F)c(-c2ccc(Cl)c(Cl)c2)n1 [Cpd A, 6-(3,4-Dichlorophenyl)-N-[(1R,2R)-2-hydroxycyclohexyl]-5-(2,2,2-trifluoroethoxy)pyridine-2-carboxamide], which ALT (ADR-injected Balb/c mice; 30 mg/Kg) is on record?
**A.** 365.3 ± 181.2 U/L

**Q.** And the HCT (ADR-injected Balb/c mice; 30 mg/Kg)?
**A.** 51.8 ± 3.3%

**Q.** What about the HEMOGLOBIN (ADR-injected Balb/c mice; 30 mg/Kg) of the same molecule?
**A.** 13.9 ± 1.1 g/dL

**Q.** What about the WBC (ADR-injected Balb/c mice; 30 mg/Kg) of the same molecule?
**A.** 4.6 ± 1.3 ×10^∧3 cells/ul

**Q.** What about the “liver toxicity and blood dyscrasias (serology)” value (ADR-injected Balb/c mice) of the same molecule?
**A.** No apparent signs of such toxicities

**Q.** What about the ALT (ADR-injected Balb/c mice; first ALT line (r15), 30 mg/Kg) of the same molecule?
**A.** 339.3 ± 274.8 U/L

**Q.** What about the “ABCA1 in the microsomal compartment” value (ABCA1 [1]; 5 μM) of the same molecule?
**A.** Less ABCA1

**Q.** What about the “ABCA1 localization at the plasma membrane” value (ABCA1 [1]; 5 μM) of the same molecule?
**A.** increase the expression of ABCA1 at the plasma membrane; also recorded: promoted ABCA1 localization at the plasma membrane

**Q.** And the “ABCA1 expression (western blot, whole cell lysates)” value (“ABCA1 expression” for short) (ABCA1 [2]; 5 uM, FIG. 4B)?
**A.** modest increase

**Q.** And the “ABCA1 expression” value (ABCA1 [2]; 10 uM)?
**A.** modest induction; also recorded: increased ABCA1 expression

**Q.** And the Albuminuria / proteinuria [3, 5]?
**A.** attenuated; also recorded: reduced

**Q.** And the Body weight loss [3, 5]?
**A.** partially attenuated; also recorded: prevented

**Q.** And the “TOTAL CHOL (blood)” value ([3]; 30 mg/Kg)?
**A.** 86.3 ± 8.8 mg/dL

**Q.** What about the TRIGLYCERIDES (blood) ([3]; 30 mg/Kg) of the same molecule?
**A.** 57.6 ± 15.5 mg/dL

**Q.** And the “TOTAL CHOL (blood)” value ([3]; 100 mg/Kg)?
**A.** 226.7 ± 173.4 mg/dL

**Q.** What about the TRIGLYCERIDES (blood) ([3]; 100 mg/Kg) of the same molecule?
**A.** 47.3 ± 7.5 mg/dL

**Q.** For Cc1oc(-c2cccc(C(F)(F)F)c2)nc1Cn1c(C)cc2cc(C(O)(C(F)(F)F)C(F)(F)F)ccc21 [Cpd C, 1,1,1,3,3,3-Hexafluoro-2-{2-methyl-1-[5-methyl-2-(3-trifluoromethyl-phenyl)-oxazol-4-ylmethyl]-1H-indol-5-yl}-propan-2-ol, reference compound], which ALT (ADR-injected Balb/c mice; 10 mg/Kg) is on record?
**A.** 213.0 ± 151.7 U/L

**Q.** What about the HCT (ADR-injected Balb/c mice; 10 mg/Kg) of the same molecule?
**A.** 44.8 ± 1.5%

**Q.** What about the HEMOGLOBIN (ADR-injected Balb/c mice; 10 mg/Kg) of the same molecule?
**A.** 12.2 ± 1.0 g/dL

**Q.** And the WBC (ADR-injected Balb/c mice; 10 mg/Kg)?
**A.** 7.6 ± 4.4 ×10^∧3 cells/ul

**Q.** What about the “liver toxicity and blood dyscrasias (serology)” value (ADR-injected Balb/c mice) of the same molecule?
**A.** No apparent signs of such toxicities

**Q.** And the ALT (ADR-injected Balb/c mice; first ALT line (r15), 10 mg/Kg)?
**A.** 299.5 ± 365.0 U/L

**Q.** And the “ABCA1 localization at the plasma membrane” value (ABCA1 [1]; 1 μM)?
**A.** increase the expression of ABCA1 at the plasma membrane; also recorded: promoted ABCA1 localization at the plasma membrane

**Q.** What about the “ABCA1 expression” value (ABCA1 [2]; doses as low as 1 uM, FIG. 4A) of the same molecule?
**A.** strong induction; also recorded: markedly increased

**Q.** And the Albuminuria / proteinuria ([3]; 10 mg/Kg once daily oral gavage)?
**A.** No significant differences

**Q.** What about the “TOTAL CHOL (blood)” value ([3]; 10 mg/Kg) of the same molecule?
**A.** 117.4 ± 66.8 mg/dL

**Q.** And the TRIGLYCERIDES (blood) ([3]; 10 mg/Kg)?
**A.** 57.2 ± 6.3 mg/dL

From patent US20210275514A1, “COMPOUNDS FOR USE IN TREATING KIDNEY DISORDERS” (Hoffmann-La Roche Inc., priority 2018, published 2021)
